The record followed here is US20250179103A1, “6-OXODECAHYDROPYRROLO[1,2-A][1,5]DIAZOCINE AND 6-OXODECAHYDRO-4H-PYRROLO[2,1-D][1,5]THIAZOCINE DERIVATIVES AS STAT3 AND STAT6 MODULATORS FOR THE TREATMENT OF CANCER AND INFLAMMATORY CONDITIONS” (Recludix Pharma, Inc., priority 2022, published 2025).

The target of test [1] is T1, Recombinant STAT3 protein (STAT3(G127-I722)) (Homo sapiens, UniProt P40763).
T1 construct: Recombinant STAT3 protein (STAT3(G127-I722))
The test can be described thus: STAT3 Fluorescence Polarization (FP) Assay. As to conditions: STAT3(G127-I722) 25 nM, probe 5-FAM-GpYLPQTV-NH2 2 nM, 45-minute incubation. It counts as binding. In a few lines: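 Fluorescence polarization after a 45-min room-temperature incubation measured compound displacement of a 2 nM fluorescein-labelled phosphotyrosine peptide (5-FAM-GpYLPQTV-NH2) from 25 nM recombinant STAT3(G127-I722). Buffer was 10 mM HEPES pH 7.4 with 1% DMSO final. IC50s were fitted by nonlinear regression of mP against log concentration.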

Test [2] deals with T2, Recombinant STAT6 protein (STAT6(W123-T658)) (Homo sapiens, UniProt P42226).
T2 construct: Recombinant STAT6 protein (STAT6(W123-T658))
T2 sequence (P42226 123-658): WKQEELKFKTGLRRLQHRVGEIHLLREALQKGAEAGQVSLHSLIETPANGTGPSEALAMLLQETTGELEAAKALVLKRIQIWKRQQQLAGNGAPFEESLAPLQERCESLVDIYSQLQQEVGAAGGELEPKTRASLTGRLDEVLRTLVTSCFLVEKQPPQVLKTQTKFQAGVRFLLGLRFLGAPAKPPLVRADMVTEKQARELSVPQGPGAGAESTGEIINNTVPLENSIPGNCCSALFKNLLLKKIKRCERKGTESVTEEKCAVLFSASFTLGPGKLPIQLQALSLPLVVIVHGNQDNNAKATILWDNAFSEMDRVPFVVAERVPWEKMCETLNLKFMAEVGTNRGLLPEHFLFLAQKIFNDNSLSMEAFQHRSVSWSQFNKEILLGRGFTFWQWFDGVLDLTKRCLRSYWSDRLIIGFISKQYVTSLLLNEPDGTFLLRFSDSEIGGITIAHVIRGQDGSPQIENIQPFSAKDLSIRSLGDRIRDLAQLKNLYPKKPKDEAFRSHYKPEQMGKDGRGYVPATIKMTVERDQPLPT
The test can be described thus: STAT6 Fluorescence Polarization (FP) Assay. It counts as binding. As to conditions: STAT6(W123-T658) 250 nM, probe 5-FAM-ApYKPFQDLI-NH2 2 nM, 45-minute incubation. In a few lines:
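Displacement of a fluorescent phosphotyrosine peptide (5-FAM-ApYKPFQDLI-NH2, 2 nM) from STAT6(W123-T658) (250 nM), 1% DMSO, pH 7.4 HEPES buffer. After 45 min at room temperature, polarization (mP) was plotted versus log compound concentration and fitted by nonlinear regression to give IC50.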
(In general: Fluorescence polarisation rises when a labelled molecule tumbles more slowly, as on binding a larger partner.)

T1 sequence (P40763 127-722): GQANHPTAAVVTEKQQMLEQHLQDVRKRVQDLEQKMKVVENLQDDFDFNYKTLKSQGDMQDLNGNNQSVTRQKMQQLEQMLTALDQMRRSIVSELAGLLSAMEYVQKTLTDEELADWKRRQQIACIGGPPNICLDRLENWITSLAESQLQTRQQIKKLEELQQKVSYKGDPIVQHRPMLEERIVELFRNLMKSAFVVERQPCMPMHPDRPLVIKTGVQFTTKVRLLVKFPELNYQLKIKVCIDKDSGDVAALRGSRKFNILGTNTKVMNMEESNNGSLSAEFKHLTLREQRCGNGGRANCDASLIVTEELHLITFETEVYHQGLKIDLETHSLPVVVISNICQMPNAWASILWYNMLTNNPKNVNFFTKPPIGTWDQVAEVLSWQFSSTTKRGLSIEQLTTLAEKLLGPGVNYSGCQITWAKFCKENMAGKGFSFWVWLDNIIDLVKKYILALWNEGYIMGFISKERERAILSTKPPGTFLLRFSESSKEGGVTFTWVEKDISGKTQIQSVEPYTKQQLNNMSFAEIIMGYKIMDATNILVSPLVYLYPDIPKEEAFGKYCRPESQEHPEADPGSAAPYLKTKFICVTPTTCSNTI

As usually defined, the IC50 is the concentration that inhibits the measured activity by half. As for “((2-(((5S,8S,10aR)-8-((3S,4R or 3R,4S)-3-cyano-4-phenylpyrrolidine-1-carbonyl)-3-(2,2-difluoroethyl)-6-oxodecahydropyrrolo[1,2-a][1,5]diazocin-5-yl)carbamoyl)benzo[b]thiophen-5-yl)difluoromethyl)phosphonic acid [Compound 249]”, the values for the IC50 in test [1] and in test [2] were 100 to 1000 nM and not above 300 nM, respectively.

For the molecule `COc1cc(CN2CC[C@H]3CC[C@@H](C(=O)N4CC(c5cccnc5)C4)N3C(=O)[C@@H](NC(=O)c3cc4cc(C(F)(F)P(=O)(O)O)ccc4s3)C2)ccc1-n1cnc(C)c1` [Compound 275, (difluoro(2-(((5S,8S,10aR)-3-(3-methoxy-4-(4-methyl-1H-imidazol-1-yl)benzyl)-6-oxo-8-(3-(pyridin-3-yl)azetidine-1-carbonyl)decahydropyrrolo[1,2-a][1,5]diazocin-5-yl)carbamoyl)benzo[b]thiophen-5-yl)methyl)phosphonic acid], the IC50 in test [1] was not above 100 nM; in test [2], 3000 to 30000 nM.

In the case of `CC(=O)N1CC[C@H]2CC[C@@H](C(=O)N3CC4CCS(=O)(=O)CC4C3)N2C(=O)[C@@H](NC(=O)c2cc3cc(C(F)(F)P(=O)(O)O)ccc3s2)C1` (stereo partly drawn) [Compound 80, ((2-(((5S,8S,10aR)-3-acetyl-8-(5,5-dioxidooctahydrothiopyrano[3,4-c]pyrrole-2-carbonyl)-6-oxodecahydropyrrolo[1,2-a][1,5]diazocin-5-yl)carbamoyl)benzo[b]thiophen-5-yl)difluoromethyl)phosphonic acid], the IC50 fell in the range of 100 to 1000 nM in test [1] and 300 to 3000 nM in test [2].

As to `CC(=O)N1CC[C@H]2CC[C@@H](C(=O)N3CCC(N4CCCS4(=O)=O)C3)N2C(=O)[C@@H](NC(=O)c2cc3cc(C(F)(F)P(=O)(O)O)ccc3s2)C1` (stereo partly drawn) [Compound 78, ((2-(((5S,8S,10aR)-3-acetyl-8-(3-(1,1-dioxidoisothiazolidin-2-yl)pyrrolidine-1-carbonyl)-6-oxodecahydropyrrolo[1,2-a][1,5]diazocin-5-yl)carbamoyl)benzo[b]thiophen-5-yl)difluoromethyl)phosphonic acid], the IC50 in test [1] lay in the range of 100 to 1000 nM; in test [2], 300 to 3000 nM.

For the molecule `CC(=O)N1CC[C@H]2CC[C@@H](C(=O)Nc3ccc4nccnc4c3)N2C(=O)[C@@H](NC(=O)c2cc3cc(C(F)(F)P(=O)(O)O)ccc3s2)C1` [Compound 69, ((2-(((5S,8S,10aR)-3-aceytl-6-oxo-8-(quinoxalin-6-ylcarbamoyl)decahydropyrrolo[1,2-a][1,5]diazocin-5-yl)carbamoyl)benzo[b]thiophen-5-yl)difluoromethyl)phosphonic acid], the figures for the IC50 in test [1] and in test [2] were 1000 to 10000 nM and 300 to 3000 nM, respectively.

Consider `Cc1ccc2onc(C(=O)N3CC[C@H]4CC[C@@H](C(=O)N5C[C@H](c6ccn(C)c(=O)c6)CC56CC6)N4C(=O)[C@@H](NC(=O)c4ccc5ccc([C@H](F)P(=O)(O)O)cc5c4)C3)c2c1` [Compound 390, ((R)-fluoro(7-(((5S, 8S,10aR)-8-((S)-6-(1-methyl-2-oxo-1,2-dihydropyridin-4-yl)-4-azaspiro[2.4]heptane-4-carbonyl)-3-(5-methylbenzo[d]isoxazole-3-carbonyl)-6-oxodecahydropyrrolo [1,2-a][1,5]diazocin-5-yl)carbamoyl)naphthalen-2-yl)methyl)phosphonic acid], for which the IC50 in test [1] is 1000 to 10000 nM; in test [2], not above 300 nM.

In the case of `CC(=O)N1CC[C@H]2CC[C@@H](C(=O)N3C[C@@H](C#N)[C@H](c4cccnc4)C3)N2C(=O)[C@@H](NC(=O)c2cc3cc(C(F)(F)P(=O)(O)O)ccc3s2)C1` (relative stereo) [Compound 150, ((2-(((5S,8S,10aR)-3-acetyl-8-((rel-trans)-3-cyano-4-(pyridin-3-yl)pyrrolidine-1-carbonyl)-6-oxodecahydropyrrolo[1,2-a][1,5]diazocin-5-yl)carbamoyl)benzo[b]thiophen-5-yl)difluoromethyl)phosphonic acid], the IC50 in test [1] was 100 to 1000 nM; in test [2], not above 300 nM.
